These results are taken from ChEMBL document CHEMBL2040815, “Sentulic acid: a cytotoxic ring A-seco triterpenoid from Sandoricum koetjape Merr” (Bioorg Med Chem Lett, 2012).

pIC50: −log10 of the molar value. The source made the active and inactive calls. No cut-off for these calls is given here.

Test [1] relates to HL-60. The test can be described thus: Induction of apoptosis in human HL60 cells assessed as fragmentation of the nuclei at 50 to 100 uM after 24 hrs by Hoechst 33342 staining. The test is classed as functional, cell-based.
Test [2] relates to HL-60. Briefly: Cytotoxicity against human HL60 cells assessed as inhibition of cell proliferation at 25 uM after 24 to 72 hrs by trypan blue dye exclusion test relative to control. The class given is functional.
For test [3], the system named is HL-60. The test can be described thus: Cytotoxicity against human HL60 cells assessed as inhibition of cell proliferation at 100 uM after 24 to 72 hrs by trypan blue dye exclusion test. The class given is functional, cell-based.
The subject of test [4] is HL-60. The test can be described thus: Induction of apoptosis in human HL60 cells assessed as condensation of chromatin at 50 to 100 uM after 24 hrs by Hoechst 33342 staining. The test is classed as functional, cell-based.
Test [5] relates to HL-60. Briefly: Cytotoxicity against human HL60 cells after 48 hrs by MTT assay. The class given is functional, cell-based. As to conditions: HL-60, 48 h.
In test [6] the test system is HL-60. The test can be described thus: Cytotoxicity against human HL60 cells assessed as decrease in cell viability after 24 to 72 hrs by trypan blue dye exclusion test. The class given is functional, cell-based.
In test [7] the test system is HL-60. The test can be described thus: Induction of apoptosis in human HL60 cells assessed as DNA fragmentation laddering at 100 uM by agarose gel electrophoresis. The test is classed as functional, cell-based.

Turning to `CC1(C)CC[C@]2(C)CC[C@]3(C(=O)O)C(=CC[C@@H]4[C@@]5(C)CCC(=O)C(C)(C)[C@@H]5CC[C@]43C)[C@@H]2C1`, the result with HL-60 [1], with HL-60 [4] and in the test on HL-60 [7] was Active. Besides, the inhibition at 25 µM in the test with HL-60 [2] was determined as 50%. The inhibition entry with HL-60 [3] was “Active”. Further, the pIC50 with HL-60 [5] was 4.56. In the test on HL-60 [6], the Activity entry was “Dose-dependent effect”.

For `C=C(C)[C@@H]1CC[C@]2(C)[C@H](CC=C3[C@@H]4CC(C)(C)CC[C@]4(C)CC[C@]32C(=O)O)[C@@]1(C)CCC(=O)O` [SENTULIC ACID], the result in the test with HL-60 [1], in the test with HL-60 [4] and in the test on HL-60 [7] was Active. In addition, the inhibition at 25 µM in the test with HL-60 [2] stood at 50%. In addition, in the test on HL-60 [3], the inhibition result is “Active”. The compound also showed a pIC50 in the test with HL-60 [5] of 4.43. Further, in the test with HL-60 [6], the Activity result is “Dose-dependent effect”.

Usually inhibition stands for the change of the read-out against control, counted positive when it falls. As a reminder, the pIC50 is the negative decadic logarithm of the IC50, by convention in mol/L. A lower pIC50 goes with a large IC50.
